# PubChem BioAssay (NCI)
#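 Test compounds were applied to cells in 96-well plates for 48 hours at 5 doses. GI50: concentration for 50% inhibition of growth. The concentration for full growth arrest is given as TGI.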
# Key:
# Assay in all cases: growth of human tumour cells (NCI), 48 h
# M14 melanoma = system: M14 melanoma
# HOP-62 NSCLC = system: HOP-62 NSCLC
# LOX IMVI melanoma = system: LOX IMVI melanoma
# NCI-H460 lung = system: NCI-H460 lung
# HCT-116 colon = system: HCT-116 colon
# MOLT-4 leukemia = system: MOLT-4 leukemia
# SW-620 colon = system: SW-620 colon
# COLO 205 colon = system: COLO 205 colon
# SK-MEL-28 melanoma = system: SK-MEL-28 melanoma
SMILES,TGI (M14 melanoma) [µM],TGI (HOP-62 NSCLC) [µM],TGI (LOX IMVI melanoma) [µM],TGI (NCI-H460 lung) [µM],TGI (HCT-116 colon) [µM],TGI (MOLT-4 leukemia) [µM],TGI (SW-620 colon) [µM],TGI (COLO 205 colon) [µM],TGI (SK-MEL-28 melanoma) [µM],GI50 (M14 melanoma) [µM],GI50 (HOP-62 NSCLC) [µM],GI50 (LOX IMVI melanoma) [µM],GI50 (NCI-H460 lung) [µM],GI50 (HCT-116 colon) [µM],GI50 (SK-MEL-28 melanoma) [µM],GI50 (MOLT-4 leukemia) [µM],GI50 (SW-620 colon) [µM],GI50 (COLO 205 colon) [µM]
Fc1ccc(C2SCc3nc4ccccc4n32)c(F)c1 (stereo not drawn),> 100,> 100,> 100,> 100,> 100,> 100,> 100,> 100,–,–,–,–,–,–,–,–,–,–
Cc1c(/C=N/N=C/c2[nH]c(C(=O)OC(C)(C)C)c(C)c2C)[nH]c(C(=O)OC(C)(C)C)c1C,> 100,> 100,> 100,> 100,> 100,> 100,> 100,> 100,–,–,–,–,–,–,–,–,–,–
O=C(NC1CCCCC1)NS(=O)(=O)c1ccc2c(c1)CCC2,> 100,–,> 100,–,–,> 100,> 100,> 100,> 100,–,–,–,–,–,–,–,–,–
COc1ccc(C=O)c([N+](=O)[O-])c1,> 100,> 100,> 100,> 100,26.4,> 100,> 100,> 100,> 100,–,–,–,–,–,–,–,–,–
Cc1cccc(C)c1NC(=O)/C(=N/NC(N)=S)C(C)C(=O)c1ccc(Cl)cc1 (stereo not drawn),> 100,> 100,–,> 100,> 100,> 100,> 100,> 100,> 100,–,–,–,–,–,–,–,–,–
COC(=O)C1CC2CC(=NNC(N)=O)CC2C1 (stereo not drawn),> 100,> 100,> 100,> 100,> 100,> 100,> 100,> 100,> 100,–,–,–,–,–,–,–,–,–
COc1cc2c3c(n(C)c(=O)c2cc1OC)-c1cc2c(cc1/C3=C\CCCCN1C(=O)c3ccccc3C1=O)OCO2,> 100,70.4,22.5,43.7,> 100,13.4,> 100,> 100,> 100,38.4,17.4,10.7,3.52,22.8,> 100,2.07,7,6.28
CC(=O)Nc1ccc(SC#N)c2c(NC(C)=O)cccc12,> 100,> 100,> 100,> 100,> 100,> 82.1,> 100,> 100,> 100,–,–,–,–,–,–,–,–,–
Cc1ccc2c(C3Cc4ccccc4N3C(=O)/C=C\C(=O)O)c(C)[nH]c2c1 (stereo not drawn),> 100,> 100,> 100,> 100,> 100,94.6,> 100,58.5,> 100,–,–,–,–,–,–,–,–,–
COc1ccc(-c2cc(Cc3cccs3)c(=O)[nH]n2)cc1,–,–,–,–,> 100,–,> 100,> 100,> 100,–,–,–,–,–,–,–,–,–
